Paper PMC7037732, “Synthesis of Combretastatin A-4 and 3′-Aminocombretastatin A-4 derivatives with Aminoacid Containing Pendants and Study of their Interaction with Tubulin and as Downregulators of the VEGF, hTERT and c-Myc Gene Expression” (Molecules, 2020)

Assays:
[1] = tested on: MCF-7 (breast adenocarcinoma); test: Inhibition of cell proliferation (MTT), MCF-7; format: cell-based, human; conditions: Homo sapiens, 48 h of treatment (footnote), average ±SD of three experiments
Description: (§1) The ability of the synthetic compounds to inhibit cell proliferation was established by means of their IC50 values towards the tumor cell lines HT-29 (human colon adenocarcinoma), MCF-7 (breast adenocarcinoma) and A-549 (human pulmonary adenocarcinoma), as well as towards the nontumor cell line HEK-293 (human embryonic kidney cells). Results for compounds derived from CA-4 are presented in Table 1, along with the calculated selectivity indexes SIA (for HT-29 cell line), SIB (for MCF-7 cell line) and SIc (for A-549 cell line), obtained by dividing the IC50 values of the nontumor cell line (HEK-293) by those of the corresponding tumor cell line. The higher the SI index, the higher the therapeutic safety margin.
(§2) Cell culture media were purchased from Gibco (Grand Island, NY, USA). Fetal bovine serum (FBS) was a product of Harlan-Seralab (Belton, U.K.). Supplements and other chemicals not listed in this section were obtained from Sigma Chemical Co. (St. Louis, MO, USA). Plastics for cell culture were supplied by Thermo Fischer Scientific Inc., Madrid, Spain. All tested compounds were dissolved in DMSO at a concentration of 10 μg/mL and stored at −20 °C until use. HT-29, MCF-7, A-549 and HEK-293 cell lines were maintained in a Dulbecco’s modified Eagle’s medium (DMEM) containing glucose (1 g/L), glutamine (2 mM), penicillin (50 IU/mL), streptomycin (50 μg/mL) and amphotericin B (1.25 μg/mL), supplemented with 10% FBS. Cells from human non-small lung carcinoma (clone A549; ATCC n°: CCL2, MD, USA) were routinely grown at 37 °C in a humidified atmosphere of 5% CO2. Cells were maintained in a standard medium composed of RPMI 1640 (Lonza, Group Ltd., Basel, Switzerland), supplemented with 10% fetal bovine serum (FBS), 2 mM L-glutamine and 1% penicillin and streptomycin (Invitrogen). Cells were free from mycoplasma as determined by MycoAlert tests (Lonza, Group Ltd., Basel, Switzerland).
(§3) A total of 5 × 10^3 HT-29, MCF-7 or HEK-293 cells in a total volume of 100 μL of their respective growth media were incubated with serial dilutions of the tested compounds. The 3-(4,5-dimethylthiazol-2-yl)-2,5-diphenyltetrazolium bromide (MTT; Sigma Chemical Co.) dye reduction assay in a 96-well microplate was used, as previously described. […] The resulting formazan was dissolved in 150 μL of 0.04 N HCl/2-propanol and read at 550 nm. All determinations were carried out in triplicate.

[2] = tested on: A-549 (human pulmonary adenocarcinoma); test: Inhibition of cell proliferation (MTT), A-549; format: cell-based; conditions: 48 h of treatment (footnote), average ±SD of three experiments
Description: as §1
as §2, with “Switzerland). […]” for “Switzerland).”

[3] = tested on: purified tubulin; test: Critical concentration (CrC) for the assembly of purified tubulin in GAB; format: biochemical; conditions: compound 27.5 μM, tubulin 25 μM, glycerol (GAB) and GTP assembly buffer; control 7.9 ± 1.2
Procedure: The effect on the self-assembly of tubulin was determined by measuring the critical concentration (CrC).

[4] = tested on: HEK-293 (human embryonic kidney cells); test: Inhibition of cell proliferation (MTT), nontumor HEK-293; format: cell-based; conditions: Homo sapiens, 48 h of treatment (footnote), average ±SD of three experiments
Description: as §1, §2, §3

[5] = tested on: A-549 cells; test: Cell cycle distribution by flow cytometry; format: cell-based, human; conditions: A-549, 24 h
Procedure: The effects of some CA-4 derivatives on the cell cycle were evaluated in A-549 cells.
The effects of some AmCA-4 derivatives on the cell cycle were also evaluated in A-549 cells.
The supernatant and trypsinated cells were harvested and then centrifuged (1200 rpm, 5 min, 4 °C). The cell pellet was resuspended in 1 mL of cold 70% ethanol for 30 min at −20 °C. Cells were centrifuged (2000 rpm, 5 min, 4 °C) to remove ethanol, and then the cell pellet was resuspended in the staining mix containing 50 µg/mL propidium iodide (Molecular Probes, France) and 100 µg/mL RNAse A (Sigma, France) in PBS for 20 min at room temperature in darkness. Samples were analyzed on a Becton Dickinson FACScan flow cytometer using the CellQuest software, which was also used to determine the percentage of cells in the G2/M phases of the cell cycle. PI was excited at 488 nm, and fluorescence analyzed at 620 nm on channel Fl-2.

[6] = tested on: HT-29 (human colon adenocarcinoma); test: Inhibition of cell proliferation (MTT), HT-29; format: cell-based; conditions: Homo sapiens, 48 h of treatment (footnote), average ±SD of three experiments
Description: as §1, §2, §3

[7] = Homo sapiens, A549, 48 h, Table 1
[8] = concentration per compound as in Tables 6 and 7
[9] = Homo sapiens, A549, 48 h, Table 2

| SMILES | IC50 ([1]; MCF7, 48 h, Table 1) [µM] | IC50 [2, 7] [µM] | CrC (critical concentration) [3] [µM] | IC50 ([4]; HEK293, 48 h, Table 1) [µM] | G0/G1 ([5]; 75 μM) [%] | G2/M ([5]; 75 μM) [%] | S ([5]; 75 μM) [%] | IC50 ([6]; HT-29, 48 h, Table 1) [µM] | IC50 ([1]; MCF7, Table 1) [µM] | IC50 ([4]; HEK293, Table 1) [µM] | IC50 ([6]; HT-29, Table 1) [µM] | Effect on the cell cycle [5, 8] | further results |
| --- | --- | --- | --- | --- | --- | --- | --- | --- | --- | --- | --- | --- | --- |
| COC(=O)[C@@H](NC(=O)COc1cc(/C=C\c2cc(OC)c(OC)c(OC)c2)ccc1OC)C(C)C [Compound 3.2] | 12 ± 6 | 24 ± 1 | 11.7 ± 2.3 | 5 ± 2 | 42 ± 3 | 44 ± 1 | 14 ± 4 | 24 ± 4 |  |  |  |  |  |
| COC(=O)[C@H](CCSC)NC(=O)COc1cc(/C=C\c2cc(OC)c(OC)c(OC)c2)ccc1OC [Compound 3.9] |  | < 10 | 8.06 ± 0.04 |  | 47 ± 4 | 36 ± 1 | 17 ± 3 |  | 10 ± 3 | 8 ± 1 | 16 ± 7 |  | IC50 ([2]; Table 1): 10 ± 2 µM |
| COc1ccc(/C=C\c2cc(OC)c(OC)c(OC)c2)cc1OCC(=O)N1CCC[C@H]1C(=O)O [Compound 4.5] | 83 ± 16 | 110 ± 10 | 9.2 ± 0.5 | 45 ± 16 | 72 | 16 | 12 | 26 ± 13 |  |  |  | do not exert any significant effect on the cells |  |
| COc1ccc(/C=C\c2cc(OC)c(OC)c(OC)c2)cc1OCC(=O)N[C@@H](C(=O)O)C(C)C [Compound 6.1] |  | 54 ± 7 | 9.4 ± 1.3 |  |  |  |  |  | 46 ± 3 | 39 ± 6 | 45 ± 5 | do not exert any significant effect on the cells | G0/G1 ([5]; 100 μM): 67 ± 2%; G2/M ([5]; 100 μM): 13 ± 1%; S ([5]; 100 μM): 20 ± 2% |
| COc1ccc(/C=C\c2cc(OC)c(OC)c(OC)c2)cc1NC(=O)[C@H](N)CC(C)C [Compound 10.2] |  |  | 7.0 ± 0.5 |  |  |  |  |  |  |  |  | do not accumulate a high percentage of cells in phase G2/M | IC50 ([1]; MCF7, 48 h, Table 2): 2 ± 0.9 µM; IC50 [2, 9]: 0.157 ± 0.007 µM; IC50 ([4]; HEK293, 48 h, Table 2): 0.43 ± 0.04 µM; G0/G1 ([5]; 0.5 µM): 63 ± 4%; G2/M ([5]; 0.5 µM): 22 ± 2%; S ([5]; 0.5 µM): 16 ± 3%; IC50 ([6]; HT-29, 48 h, Table 2): 1.05 ± 0.14 µM |
| COC(=O)[C@H](CC(C)C)NC(=O)COc1cc(/C=C\c2cc(OC)c(OC)c(OC)c2)ccc1OC [Compound 3.3] | 19 ± 6 | < 10 | 9.4 ± 1.4 | 9 ± 2 | 45 ± 6 | 36 ± 4 | 19 ± 2 | 29 ± 6 |  |  |  |  | IC50 ([2]; Table 1): 8 ± 1 µM |
| COC(=O)[C@@H]1CCCN1C(=O)COc1cc(/C=C\c2cc(OC)c(OC)c(OC)c2)ccc1OC [Compound 3.5] |  | 50 ± 10 | 10.4 ± 2.0 |  |  |  |  |  | 24 ± 2 | 20 ± 1 | 48 ± 5 | do not exert any significant effect on the cells | G0/G1 ([5]; 100 μM): 77 ± 2%; G2/M ([5]; 100 μM): 7 ± 1%; S ([5]; 100 μM): 16 ± 2% |
| COC(=O)[C@H]1CCCN1C(=O)COc1cc(/C=C\c2cc(OC)c(OC)c(OC)c2)ccc1OC [Compound 5.4] |  | 15 ± 1 | 9 ± 3 |  | 36 ± 4 | 50 ± 1 | 14 ± 3 |  | 10 ± 4 | 5.7 ± 0.8 | 50 |  |  |
| COC(=O)[C@@H](CO)NC(=O)COc1cc(/C=C\c2cc(OC)c(OC)c(OC)c2)ccc1OC [Compound 5.5] | 7 ± 2 | 28 ± 1 | 9.2 ± 0.9 | 9 ± 3 |  |  |  | 11 ± 2 |  |  |  |  | cells accumulated in the G2/M phase ([5]; concentration per compound as in Tables 6 and 7, control 14%): 50–70% |
| COC(=O)CNC(=O)COc1cc(/C=C\c2cc(OC)c(OC)c(OC)c2)ccc1OC [Compound 3.1] | 8 ± 2 | 26 ± 2 | 9.52 ± 0.05 | 9 ± 1 |  |  |  | 12 ± 2 |  |  |  |  |  |
| COc1ccc(/C=C\c2cc(OC)c(OC)c(OC)c2)cc1NC(=O)[C@@H](CC(C)C)NC(=O)OCC1c2ccccc2-c2ccccc21 [Compound 9.2] |  |  | 6.5 ± 0.7 |  |  |  |  |  |  |  |  |  | IC50 ([1]; MCF7, 48 h, Table 2): 3.1 ± 0.5 µM; IC50 [2, 9]: 48 ± 3 µM; IC50 ([4]; HEK293, 48 h, Table 2): 2.4 ± 0.4 µM; IC50 ([6]; HT-29, 48 h, Table 2): 44 ± 6 µM |
